Experimental data taken from PubChem BioAssay (NCI).
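All cell lines were grown in 96-well plates and treated with compound for 48 hours. TGI: total growth inhibition.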

Legend:
Assay in all cases: NCI tumour cell line growth inhibition, 48 h
NCI-H226 lung = system: NCI-H226 lung
SF-295 CNS = system: SF-295 CNS
SK-MEL-2 melanoma = system: SK-MEL-2 melanoma
HT29 colon = system: HT29 colon
UO-31 renal = system: UO-31 renal
HCT-15 colon = system: HCT-15 colon
DMS 114 small cell lung = system: DMS 114 small cell lung
OVCAR-3 ovarian = system: OVCAR-3 ovarian
COLO 205 colon = system: COLO 205 colon
NCI-H522 lung = system: NCI-H522 lung
SK-OV-3 ovarian = system: SK-OV-3 ovarian
HCT-116 colon = system: HCT-116 colon
NCI-H23 lung = system: NCI-H23 lung
CCRF-CEM leukemia = system: CCRF-CEM leukemia
MOLT-4 leukemia = system: MOLT-4 leukemia
U251 CNS = system: U251 CNS
786-0 renal = system: 786-0 renal
SF-268 CNS = system: SF-268 CNS
RPMI-8226 leukemia = system: RPMI-8226 leukemia
M14 melanoma = system: M14 melanoma
IGROV1 ovarian = system: IGROV1 ovarian
LXFL 529 NSCLC = system: LXFL 529 NSCLC
A549 NSCLC = system: A549 NSCLC
OVCAR-4 ovarian = system: OVCAR-4 ovarian
SF-539 CNS = system: SF-539 CNS
HOP-92 NSCLC = system: HOP-92 NSCLC
OVCAR-8 ovarian = system: OVCAR-8 ovarian
DLD-1 colon = system: DLD-1 colon
ACHN renal = system: ACHN renal
UACC-62 melanoma = system: UACC-62 melanoma
CAKI-1 renal = system: CAKI-1 renal
OVCAR-5 ovarian = system: OVCAR-5 ovarian
SW-620 colon = system: SW-620 colon
SR leukemia = system: SR leukemia
EKVX NSCLC = system: EKVX NSCLC
HL-60(TB) leukemia = system: HL-60(TB) leukemia
UACC-257 melanoma = system: UACC-257 melanoma
MALME-3M melanoma = system: MALME-3M melanoma
SN12C renal = system: SN12C renal
SNB-19 CNS = system: SNB-19 CNS
A498 renal = system: A498 renal
SK-MEL-28 melanoma = system: SK-MEL-28 melanoma
M19-MEL melanoma = system: M19-MEL melanoma
DMS 273 small cell lung = system: DMS 273 small cell lung
KM12 colon = system: KM12 colon
LOX IMVI melanoma = system: LOX IMVI melanoma
RXF 393 renal = system: RXF 393 renal
TK-10 renal = system: TK-10 renal
HOP-62 NSCLC = system: HOP-62 NSCLC
SNB-75 CNS = system: SNB-75 CNS
XF 498 CNS = system: XF 498 CNS
SNB-78 CNS = system: SNB-78 CNS
K-562 leukemia = system: K-562 leukemia
NCI-H460 lung = system: NCI-H460 lung
SK-MEL-5 melanoma = system: SK-MEL-5 melanoma
HOP-18 NSCLC = system: HOP-18 NSCLC

Q: Which TGI (NCI-H226 lung) does the source give for `CCCCCCCCCCOC(=O)c1cc[n+](C)cc1` here?
A: Its TGI is 32.7 µM.

Q: And the TGI (SF-295 CNS)?
A: Its TGI is 30.3 µM.

Q: And the TGI (SK-MEL-2 melanoma)?
A: Its TGI is 49.1 µM.

Q: What about the TGI (HT29 colon) of the same compound?
A: The TGI was 31.1 µM.

Q: And the TGI (UO-31 renal)?
A: The TGI was 30.3 µM.

Q: What about the TGI (HCT-15 colon) of the same compound?
A: The TGI was 29.5 µM.

Q: And the TGI (DMS 114 small cell lung)?
A: Its TGI is 33.1 µM.

Q: And the TGI (OVCAR-3 ovarian)?
A: Its TGI is 28.9 µM.

Q: And the TGI (COLO 205 colon)?
A: Its TGI is 30.3 µM.

Q: And the TGI (NCI-H522 lung)?
A: The TGI was 30 µM.

Q: And the TGI (SK-OV-3 ovarian)?
A: The TGI was 29.6 µM.

Q: And the TGI (HCT-116 colon)?
A: The TGI was 36.6 µM.

Q: And the TGI (NCI-H23 lung)?
A: Its TGI is 35 µM.

Q: And the TGI (CCRF-CEM leukemia)?
A: Its TGI is 37.7 µM.

Q: What about the TGI (MOLT-4 leukemia) of the same compound?
A: Its TGI is 37.5 µM.

Q: And the TGI (U251 CNS)?
A: The TGI was 29.1 µM.

Q: What about the TGI (786-0 renal) of the same compound?
A: Its TGI is 31.7 µM.

Q: And the TGI (SF-268 CNS)?
A: Its TGI is 35.3 µM.

Q: What about the TGI (RPMI-8226 leukemia) of the same compound?
A: Its TGI is 38.2 µM.

Q: What about the TGI (M14 melanoma) of the same compound?
A: The TGI was 32.2 µM.

Q: What about the TGI (IGROV1 ovarian) of the same compound?
A: The TGI was 30.4 µM.

Q: What about the TGI (LXFL 529 NSCLC) of the same compound?
A: Its TGI is 29.8 µM.

Q: What about the TGI (A549 NSCLC) of the same compound?
A: The TGI was 31 µM.

Q: And the TGI (OVCAR-4 ovarian)?
A: The TGI was 33 µM.

Q: What about the TGI (SF-539 CNS) of the same compound?
A: Its TGI is 29.8 µM.

Q: And the TGI (HOP-92 NSCLC)?
A: The TGI was 29.2 µM.

Q: And the TGI (OVCAR-8 ovarian)?
A: The TGI was 31.4 µM.

Q: What about the TGI (DLD-1 colon) of the same compound?
A: The TGI was 32.5 µM.

Q: And the TGI (ACHN renal)?
A: The TGI was 33.2 µM.

Q: And the TGI (UACC-62 melanoma)?
A: The TGI was 34 µM.

Q: And the TGI (CAKI-1 renal)?
A: The TGI was 30.4 µM.

Q: What about the TGI (OVCAR-5 ovarian) of the same compound?
A: The TGI was 26.8 µM.

Q: What about the TGI (SW-620 colon) of the same compound?
A: The TGI was 34.5 µM.

Q: And the TGI (SR leukemia)?
A: Its TGI is 32.7 µM.

Q: What about the TGI (EKVX NSCLC) of the same compound?
A: Its TGI is 30.5 µM.

Q: And the TGI (HL-60(TB) leukemia)?
A: Its TGI is 35.4 µM.

Q: And the TGI (UACC-257 melanoma)?
A: Its TGI is 34 µM.

Q: What about the TGI (MALME-3M melanoma) of the same compound?
A: Its TGI is 30.7 µM.

Q: And the TGI (SN12C renal)?
A: Its TGI is 30.7 µM.

Q: And the TGI (SNB-19 CNS)?
A: The TGI was 30.4 µM.

Q: What about the TGI (A498 renal) of the same compound?
A: Its TGI is 36.9 µM.

Q: What about the TGI (SK-MEL-28 melanoma) of the same compound?
A: Its TGI is 31.3 µM.

Q: And the TGI (M19-MEL melanoma)?
A: Its TGI is 32.9 µM.

Q: And the TGI (DMS 273 small cell lung)?
A: Its TGI is 31.3 µM.

Q: What about the TGI (KM12 colon) of the same compound?
A: Its TGI is 31.3 µM.

Q: What about the TGI (LOX IMVI melanoma) of the same compound?
A: The TGI was 32.6 µM.

Q: And the TGI (RXF 393 renal)?
A: Its TGI is 34.3 µM.

Q: What about the TGI (TK-10 renal) of the same compound?
A: The TGI was 31.8 µM.

Q: And the TGI (HOP-62 NSCLC)?
A: Its TGI is 30.6 µM.

Q: What about the TGI (SNB-75 CNS) of the same compound?
A: Its TGI is 34.3 µM.

Q: And the TGI (XF 498 CNS)?
A: The TGI was 31.4 µM.

Q: And the TGI (SNB-78 CNS)?
A: The TGI was 34.4 µM.

Q: What about the TGI (K-562 leukemia) of the same compound?
A: Its TGI is 34.2 µM.

Q: And the TGI (NCI-H460 lung)?
A: Its TGI is 38.8 µM.

Q: And the TGI (SK-MEL-5 melanoma)?
A: The TGI was 33.6 µM.

Q: And the TGI (HOP-18 NSCLC)?
A: Its TGI is over 100 µM.
